#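 In this assay, cells in 96-well plates receive the compound at five concentrations for 48 hours. Endpoints are linearly interpolated between the surrounding concentrations. At the GI50, growth is halved. The concentration for full growth arrest is given as TGI.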
# What was measured:
# Experiment in all cases: inhibition of tumour cell growth, NCI panel, 48 h
# [1] = system: CCRF-CEM leukemia
# [2] = system: SK-MEL-5 melanoma
# [3] = system: OVCAR-5 ovarian
# [4] = system: 786-0 renal
# [5] = system: SW-620 colon
# [6] = system: HCT-15 colon
# [7] = system: MDA-MB-231 breast
# [8] = system: ACHN renal
# [9] = system: SK-MEL-28 melanoma
# [10] = system: RPMI-8226 leukemia
# [11] = system: NCI-H23 lung
# [12] = system: UACC-257 melanoma
# [13] = system: M14 melanoma
# [14] = system: HOP-62 NSCLC
# [15] = system: OVCAR-4 ovarian
# [16] = system: SK-MEL-2 melanoma
# [17] = system: SNB-19 CNS
# [18] = system: PC-3 prostate
# [19] = system: TK-10 renal
# [20] = system: T-47D breast
# [21] = system: HCT-116 colon
# [22] = system: NCI-H460 lung
# [23] = system: HOP-92 NSCLC
# [24] = system: NCI/ADR-RES ovarian
# [25] = system: LOX IMVI melanoma
# [26] = system: SF-295 CNS
# [27] = system: NCI-H522 lung
# [28] = system: SF-268 CNS
# [29] = system: A549 NSCLC
# [30] = system: IGROV1 ovarian
# [31] = system: UO-31 renal
# [32] = system: OVCAR-8 ovarian
# [33] = system: U251 CNS
# [34] = system: EKVX NSCLC
# [35] = system: HT29 colon
# [36] = system: RXF 393 renal
# [37] = system: DU-145 prostate
# [38] = system: HS 578T breast
# [39] = system: SK-OV-3 ovarian
# [40] = system: KM12 colon
# [41] = system: COLO 205 colon
# [42] = system: A498 renal
# [43] = system: K-562 leukemia
# [44] = system: UACC-62 melanoma
# [45] = system: SR leukemia
# [46] = system: CAKI-1 renal
# [47] = system: HCC-2998 colon
# [48] = system: SF-539 CNS
# [49] = system: HL-60(TB) leukemia
# [50] = system: MCF7 breast
# [51] = system: SN12C renal
# [52] = system: OVCAR-3 ovarian
# [53] = system: MDA-MB-435
# [54] = system: SNB-75 CNS
# [55] = system: MOLT-4 leukemia
# [56] = system: MALME-3M melanoma
# [57] = system: NCI-H226 lung
smiles,measurement,setting,value
CCOc1ccc2nc(-c3cccc(OCC(=O)NC(C)C)c3)nc(Nc3ccc(-c4cn[nH]c4)cc3)c2c1,GI50,[1],315 nM
same,TGI,[1],> 51600 nM
same,GI50,[2],1170 nM
same,TGI,[2],2580 nM
same,GI50,[3],3300 nM
same,TGI,[3],21900 nM
same,GI50,[4],553 nM
same,TGI,[4],2630 nM
same,GI50,[5],1350 nM
same,TGI,[5],5990 nM
same,GI50,[6],834 nM
same,TGI,[6],3690 nM
same,GI50,[7],1680 nM
same,TGI,[7],10700 nM
same,GI50,[8],675 nM
same,TGI,[8],2960 nM
same,GI50,[9],1130 nM
same,TGI,[9],3000 nM
same,GI50,[10],232 nM
same,TGI,[10],4900 nM
same,GI50,[11],1290 nM
same,TGI,[11],10200 nM
same,GI50,[12],1790 nM
same,TGI,[12],4120 nM
same,GI50,[13],1220 nM
same,TGI,[13],10500 nM
same,GI50,[14],399 nM
same,TGI,[14],2220 nM
same,GI50,[15],1530 nM
same,TGI,[15],3520 nM
same,GI50,[16],1560 nM
same,TGI,[16],5310 nM
same,GI50,[17],598 nM
same,TGI,[17],3760 nM
same,GI50,[18],348 nM
same,TGI,[18],2000 nM
same,GI50,[19],1890 nM
same,TGI,[19],5200 nM
same,GI50,[20],292 nM
same,TGI,[20],3570 nM
same,GI50,[21],783 nM
same,TGI,[21],3180 nM
same,GI50,[22],340 nM
same,TGI,[22],1660 nM
same,GI50,[23],452 nM
same,TGI,[23],3290 nM
same,GI50,[24],1920 nM
same,TGI,[24],22900 nM
same,GI50,[25],491 nM
same,TGI,[25],2330 nM
same,GI50,[26],711 nM
same,TGI,[26],3010 nM
same,GI50,[27],620 nM
same,TGI,[27],3330 nM
same,GI50,[28],1350 nM
same,TGI,[28],7000 nM
same,GI50,[29],769 nM
same,TGI,[29],3540 nM
same,GI50,[30],927 nM
same,TGI,[30],7400 nM
same,GI50,[31],344 nM
same,TGI,[31],3510 nM
same,GI50,[32],586 nM
same,TGI,[32],4760 nM
same,GI50,[33],431 nM
same,TGI,[33],2150 nM
same,GI50,[34],1220 nM
same,TGI,[34],8340 nM
same,GI50,[35],751 nM
same,TGI,[35],5090 nM
same,GI50,[36],401 nM
same,TGI,[36],2160 nM
same,GI50,[37],403 nM
same,TGI,[37],2910 nM
same,GI50,[38],132 nM
same,TGI,[38],1720 nM
same,GI50,[39],4530 nM
same,TGI,[39],13000 nM
same,GI50,[40],527 nM
same,TGI,[40],6900 nM
same,GI50,[41],686 nM
same,TGI,[41],5400 nM
same,GI50,[42],2540 nM
same,TGI,[42],9850 nM
same,GI50,[43],454 nM
same,GI50,[44],1210 nM
same,TGI,[44],4160 nM
same,GI50,[45],1130 nM
same,TGI,[45],> 43000 nM
same,GI50,[46],968 nM
same,TGI,[46],3870 nM
same,GI50,[47],1450 nM
same,TGI,[47],7910 nM
same,GI50,[48],1250 nM
same,TGI,[48],2670 nM
same,GI50,[49],661 nM
same,TGI,[49],3410 nM
same,GI50,[50],348 nM
same,TGI,[50],2110 nM
same,GI50,[51],1060 nM
same,TGI,[51],3760 nM
same,GI50,[52],1340 nM
same,TGI,[52],3120 nM
same,GI50,[53],485 nM
same,TGI,[53],3810 nM
same,GI50,[54],1160 nM
same,TGI,[54],2480 nM
same,GI50,[55],319 nM
same,TGI,[55],> 31900 nM
same,GI50,[56],324 nM
same,TGI,[56],1790 nM
same,GI50,[57],783 nM
same,TGI,[57],3190 nM
